Test results published in patent publication EP4467137A1, “TREATMENT OF FRONTOTEMPORAL DEMENTIA OR FRONTOTEMPORAL LOBAR DEMENTIA” (Universidad Autónoma de Madrid, priority 2023, dated 2024).

Tests used:
[1] = Oxygen Radical Absorbance Capacity Assay (ORAC); format: physicochemical; settings: ORAC > 1.0 is a better ROS scavenger than trolox
Protocol: The Oxygen Radical Absorbance Capacity Assay (ORAC) was performed as described [Herrera-Arozamena, Clara et al. "Resveratrol-Based MTDLs to Stimulate Defensive and Regenerative Pathways and Block Early Events in Neurodegenerative Cascades." Journal of medicinal chemistry vol. 65,6 (2022): 4727-4751. doi:10.1021/acs.jmedchem.1c01883].

NRF2 = NRF2 induction, luciferase activity in AREc32 cells; format: cell-based; settings: concentration that doubles the activation of NRF2, read-out: NRF2 CD
Excerpt: Screening of NRF2 induction was quantified by luciferase activity in AREc32 cells as described in [Herrera-Arozamena, Clara et al. "Tuning melatonin receptor subtype selectivity in oxadiazolone-based analogues: Discovery of QR2 ligands and NRF2 activators with neurogenic properties." European journal of medicinal chemistry vol. 190 (2020): 112090. doi:10.1016/j.ejmech.2020.112090].
(§1) Based on the results obtained (Table 2), Compound 1 was selected for further in vitro and in vivo studies as it was endowed with the best anti-neuroinflammatory activity. Table 2: Comparative in vitro results. Cell viability/toxicity: effect of the compound per se on cell viability of […] cells measured with the MTT method. Anti-neuroinflammatory effect: % Reduction of nitrites in primary rat glial cultures. PAMPA-BBB: In vitro blood-brain barrier permeation assay, permeation rate Pe (10-6 cm.s-1). NRF2, CD (µM): Concentration of compound that doubles de activation of NRF2. ORAC: Oxygen radical absorbance capacity. LOX-5: lipoxygenase-5.

[2] = Cell viability/toxicity by the MTT method; format: cell-based; settings: human, effect of the compound per se on AREc332 cells
Excerpt: as §1

[3] = target: T1, human lipoxygenase-5 (hLOX-5) (Homo sapiens, UniProt P09917); experiment: Inhibition of human lipoxygenase-5; format: biochemical; settings: mean ± SD of three independent experiments in triplicate; read-out: LOX5 IC50
T1 sequence (P09917 1-674): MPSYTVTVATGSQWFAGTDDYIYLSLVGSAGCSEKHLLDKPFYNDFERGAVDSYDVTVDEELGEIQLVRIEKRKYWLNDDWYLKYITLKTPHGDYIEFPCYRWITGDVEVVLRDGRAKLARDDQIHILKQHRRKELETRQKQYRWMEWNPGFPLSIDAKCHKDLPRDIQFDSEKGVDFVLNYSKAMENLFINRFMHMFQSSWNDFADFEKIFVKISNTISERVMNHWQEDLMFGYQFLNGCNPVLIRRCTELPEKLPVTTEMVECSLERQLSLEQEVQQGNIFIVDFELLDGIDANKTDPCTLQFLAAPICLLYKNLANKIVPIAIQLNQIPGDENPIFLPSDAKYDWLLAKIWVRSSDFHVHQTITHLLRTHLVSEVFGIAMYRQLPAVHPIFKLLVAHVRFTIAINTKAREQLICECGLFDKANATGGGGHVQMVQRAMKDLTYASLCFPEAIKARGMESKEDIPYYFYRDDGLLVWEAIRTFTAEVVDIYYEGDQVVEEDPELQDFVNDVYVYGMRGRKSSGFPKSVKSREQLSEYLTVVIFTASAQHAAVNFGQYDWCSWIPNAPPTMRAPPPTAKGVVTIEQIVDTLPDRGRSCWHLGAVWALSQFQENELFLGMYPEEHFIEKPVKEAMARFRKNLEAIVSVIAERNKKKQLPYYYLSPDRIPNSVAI
Protocol: The inhibition of human lipoxygenase-5 (hLOX-5) was performed as described [Herrera-Arozamena, Clara et al. "Tuning melatonin receptor subtype selectivity in oxadiazolone-based analogues: Discovery of QR2 ligands and NRF2 activators with neurogenic properties." European journal of medicinal chemistry vol. 190 (2020): 112090. doi:10.1016/j.ejmech.2020.112090], Data are the mean ± SD of three independent experiments performed in triplicate.

[4] = In vitro blood-brain barrier permeation assay (PAMPA-BBB); format: in vitro ADME; settings: for Papp: PAMPA, permeation rate, mean ± SD, read-out: PAMPA-BBB Pe
Excerpt: The in vitro blood-brain barrier permeation assay (PAMPA-BBB) was used for predicting the brain penetration of compounds, following a described method [Herrera-Arozamena, Clara et al. "Resveratrol-Based MTDLs to Stimulate Defensive and Regenerative Pathways and Block Early Events in Neurodegenerative Cascades." Journal of medicinal chemistry vol. 65,6 (2022): 4727-4751. doi:10.1021/acs.jmedchem.1c01883]. The results are given as the mean ± SD. In each experiment, 11 quality control standards of known BBB permeability were included to validate the analysis set.

[5] = system: primary rat glial cultures; experiment: Anti-neuroinflammatory screening in LPS-treated primary glial cultures (Griess, normalized by MTT); format: cell-based; settings: % reduction of nitrites, LPS alone = 100 % inflammation, read-out: Anti-neuro inflammatory effect at 3 µM (%)
Protocol: Screening for anti-inflammatory properties in primary rat glial cultures was performed according to the protocol described previously [Gameiro, Isabel et al. "Discovery of the first dual GSK3β inhibitor/Nrf2 inducer. A new multitarget therapeutic strategy for Alzheimer's disease." Scientific reports vol. 7 45701. 31 Mar. 2017, doi:10.1038/srep45701]. All compounds were evaluated at the single concentration of 3 µM. Neuroinflammation was quantified as the value of released […], measured by the Griess method, normalized by the number of viable cells measured by the MTT method [Mosmann, T. "Rapid colorimetric assay for cellular growth and survival: application to proliferation and cytotoxicity assays." Journal of immunological methods vol. 65, 1-2 (1983): 55-63. doi:10.1016/0022-1759(83)90303-4]. LPS alone was considered 100 % inflammation.
as §1

SMILES | ORAC (trolox equiv.) [1] [trolox equiv.] | EC (2-fold activation) (NRF2) [µM] | CC50 [2] [µM] | IC50 [3] [µM] | PAMPA-BBB predicted brain penetration [4] | Papp [4] [×10⁻⁶ cm/s] | inhibition at 3 µM [5] [%]
COc1ccc2[nH]c(-c3c[nH]c4ccc(OC)cc34)cc2c1 [Compound 2, 5,5'-Dimethoxy-1H,1'H-2,3'-biindole] | 1.5 ± 0.2 | 0.329 ± 0.017 | 3 to 10 | 0.42 ± 0.03 | cns+ | 8.7 ± 0.6 | 33.2 ± 11.8
c1ccc2c(c1)CC(c1c[nH]c3ccccc13)N2 (stereo not shown) [Compound 3, 3-(Indolin-2-yl)-1H-indole] | 1.9 ± 0.1 | 0.0713 ± 0.031 | > 30 | 2.89 ± 0.44 | cns+ | 11.5 ± 0.8 | 24.4 ± 6.7
Clc1ccc2c(c1)CC(c1c[nH]c3ccc(Cl)cc13)N2 (stereo not shown) [Compound 4, 5-Chloro-3-(5-chloroindolin-2-yl)-1H-indole] | 1.6 ± 0.2 | 2.04 ± 0.2 | 10 to 30 | 4.57 ± 0.25 | cns+ | 5.2 ± 0.4 | 29.6 ± 9.4
Clc1ccc2[nH]c(-c3c[nH]c4ccc(Cl)cc34)cc2c1 [Compound 5, 5,5'-Dichloro-1H,1'H-2,3'-biindole] | 0.5 ± 0.1 | 2.57 ± 0.68 | > 30 | > 100 | cns+ | 10.9 ± 0.7 | 30 ± 10
COc1cccc2c1NC(c1c[nH]c3c(OC)cccc13)C2 (stereo not shown) [Compound 6, 7-Methoxy-3-(7-methoxyindolin-2-yl)-1H-indole] | 1.0 ± 0.1 | 3.27 ± 0.25 | > 30 | > 100 | cns+ | 18.5 ± 0.8 | 45 ± 8.7
FC(F)(F)c1ccc2c(c1)CC(c1c[nH]c3ccc(C(F)(F)F)cc13)N2 (stereo not shown) [Compound 7, 5-(Trifluoromethyl)-3-(5-(trifluoromethyl)indolin-2-yl)-1H-indole] | 1.3 ± 0.1 | > 30 | 10 to 30 | 6.63 ± 0.21 | cns+ | 18.1 ± 0.9 | 45 ± 7.1
C#CCN1c2ccc(OC)cc2CC1c1cn(CC#C)c2ccc(OC)cc12 (stereo not shown) [Compound 8, 5-Methoxy-3-(5-methoxy-1-(prop-2-yn-1-yl)indolin-2-yl)-1-(prop-2-yn-1-yl)-1H-indole] | 1.3 ± 0.1 | 10.7 ± 1.3 | > 30 | 0.53 ± 0.02 | cns+ | 8.3 ± 0.3 | 37 ± 11
